Results: patent publication US10507214B2 (Druggability Technologies IP Holdco Limited, priority 2016, dated 2019)
Converted amounts (≈) assume the structure as drawn. Read-outs that look alike come from different tables or passages of the source.

What was measured:
[1] = cited from earlier work
[2] = healthy subjects, within the clinical dose range; cited from earlier work
[3] = cited from earlier work; remark: listed apart in the source
[4] = single dose of 200 mg of current formulation; cited from earlier work
[5] = Apparent solubility by UV-VIS spectroscopy after 100 nm filtration; format: physicochemical; settings: thermodynamic from solid; redispersed at 2 mg/mL in ultrapurified water, room temperature
Excerpt: The resulting solutions were filtered by 100 nm disposable syringe filter.

PAMPA permeability = format: in vitro ADME; settings: pH 7, in water, FaSSIF and FeSSIF
[6] = In-vivo PK test in beagle dogs; settings: oral, dispersed granulates, beagle dogs following a high-fat meal
[7] = single oral dose of radiolabeled drug

| SMILES | time of peak plasma levels ([1]; after an oral dose) | effective half-life ([1]; fasted conditions) | dose proportionality of Cmax and AUC ([1]; fasting conditions, up to 200 mg BID) | overall systemic exposure (AUC), intact capsule versus capsule contents sprinkled on applesauce ([1]; healthy adult volunteers) | apparent plasma clearance (CL/F) ([1]; in vivo) | unchanged drug recovered in the urine and feces ([1]; in vivo) [%] | steady-state conditions reached ([1]; multiple dosing) [days] | time of peak plasma levels ([1]; single dose of 200 mg of current formulation, oral) [h] | carboxylic acid metabolite in urine and feces [1, 7] | dose excreted in the feces [1, 7] | dose excreted into the urine [1, 7] [%] | protein bound [2] [%] | solubility in chloroform ([3]; chloroform) | solubility in methanol ([3]; methanol) | solubility in water ([3]; water) | onset of pain relief [4] [h] | solubility [5] [µg/mL] | Papp at 4 h (PAMPA permeability) [×10⁻⁶ cm/s] | Tmax ([6]; dog, plasma, 5 mg/kg) [h] | t250 ng/ml [6] [min] |
| --- | --- | --- | --- | --- | --- | --- | --- | --- | --- | --- | --- | --- | --- | --- | --- | --- | --- | --- | --- | --- |
| Cc1ccc(-c2cc(C(F)(F)F)nn2-c2ccc(S(N)(=O)=O)cc2)cc1 [Celecoxib, 4-[5-(4-methylphenyl)-3-(trifluoromethyl)-1H-pyrazol-1-yl] benzenesulfonamide] | approximately 3 hrs | approximately 11 hours | roughly dose-proportional | equivalent | about 500 mL/min | < 3 | ≤ 5 | 3 | 73 % of dose | approximately 57% | ~27 | ~97 | soluble | soluble | insoluble | ≥ 1 |  |  |  |  |
| Cc1ccc(-c2cc(C(F)(F)F)nn2-c2ccc(S(N)(=O)=O)cc2)cc1 [crystalline Celecoxib (micronized)] |  |  |  |  |  |  |  |  |  |  |  |  |  |  |  |  | 2.85 (≈ 7.47 µM) | < 0.2 | 2 | 45 |
